Results on three compounds are retold here after publication PMC6359144 (International Journal of Molecular Sciences, 2019).

SMILES strings stand for the structures. Like-named read-outs stand apart in the source and are kept apart here.

Test [1] relates to HT-29 colon carcinoma cells. Briefly: MTT assay, HT-29 colon carcinoma cells. It counts as cell-based, human. Particulars: Homo sapiens, MTT. The method, then:
(§1) HT-29 (ACC-299), HCT-116 (ACC-581) and DLD-1 (ACC-278) colon carcinoma, MCF-7 (ACC-115) breast carcinoma, KB-V1 (ACC-149), 518A2 (Department of Radiotherapy and Radiobiology, University Hospital Vienna) melanoma and Ea.Hy926 (ATCC no. CRL-2922) HUVEC derived endothelial hybrid cells line were grown in Dulbecco’s Modified Eagle Medium (DMEM; Biochrom), high glucose supplemented with 10% (v/v) fetal bovine serum (FBS; Biochrom.) and 1% (v/v) Antibiotic-Antimycotic solution (anti-anti; Thermo Scientific). HDFa human dermal fibroblasts (ATCC: PCS-201-012™) were grown in DMEM supplemented with 10% FBS, 1% anti-anti and 2 mM glutamine. The cells were incubated at 37 °C, 5% CO2, 95% humidified atmosphere. By repeated addition of topotecan or vinblastine at the maximum tolerated dose to the cell medium of MCF-7 and KB-V1 cells, the cells were rendered multidrug-resistant, indicated as MCF-7^Topo and KB-V1^Vbl, respectively. They were serially passaged following trypsinization by using 0.05% trypsin/0.02% EDTA (Biochrom). Mycoplasma contamination was routinely monitored, and only mycoplasma–free cultures were used.
(§2) MTT [3-(4,5-dimethylthiazol-2-yl)-2,5-diphenyltetrazolium bromide] (ABCR) was used to determine the cytotoxicity of test compounds as previously described. Briefly, HDFa human dermal fibroblasts and Ea.Hy926 endothelial hybrid cells (both 1 × 10^5 cells/mL, 100 µL/well), 518A2 melanoma, KB-V1^Vbl cervix carcinoma, MCF-7^Topo breast carcinoma, HT-29, DLD-1 and HCT-116 colon carcinoma (all 5 × 10^4 cells/mL, 100 µL/well) were grown in 96-well culture plates for 24 h. Then, various concentrations of the test compounds were added and the cells were incubated for 24-72 h at 37 °C. After adding 12.5 µL of a 0.5% MTT solution in PBS (final concentration 0.05%) to cell medium, microplates were incubated for 2 h and subsequently swiftly turned to discard the medium. The precipitate of formazan crystals was then dissolved in a 10% solution of SDS in DMSO containing 0.6% acetic acid. To ensure complete dissolution of formazan, microplates were incubated for at least 4 h at 37 °C. Finally, the absorbance at λ = 570 nm (formazan) and 630 nm (background) was measured using a microplate reader (Tecan F200). All experiments were carried out in quadruplicate and the percentage of viable cells was calculated as the mean ± SD with controls set to 100%. Selected graphs of MTT assays can be found in the Supporting Information (Figure S8).
A general note: Formazan colour is commonly taken as a measure of viable cells.

Another test addresses T1, recombinant human HDAC1 (Homo sapiens, UniProt Q13547).
T1 construct: purchased Cayman Chemicals
Briefly: HDAC1 inhibitor screening assay (fluorometric). Particulars: recombinant human HDAC1, mean ± SD of two experiments; read-out: HDAC inhibition IC50, HDAC1. It counts as biochemical. The procedure: The HDAC inhibitory potential of the novel compounds was determined by utilizing the deacetylase activity of recombinant human HDAC1 (HDAC1 Inhibitor Screening Assay Kit; Cayman Chemicals) or HDAC6 (HDAC6 Inhibitor Screening Kit (Fluorometric); Biovision) towards the corresponding synthetic acetylated-peptide substrates resulting in the release of a fluorescent product. The assays were performed according to manufacturer’s description of the in commercially available assay kits. […] The IC50 values were derived from dose-response curves and are expressed as the means ± SD of two independent experiments.

Test [2] concerns microtubule cytoskeleton in 518A2 melanoma cells. The experiment in a line: Immunofluorescence staining of microtubule cytoskeleton, 518A2 cells. It counts as cell-based, human. Particulars: 24 h. The method, then:
518A2 melanoma cells (5 × 10^4 cells/mL, 500 µL/well) or Ea.Hy926 endothelial hybrid cells (7.5 × 10^4 cells/mL, 500 µL/well) were seeded in 24-well plates on small glass coverslips and grown for 24 h. Then, the cells were exposed to the test compounds for 24 h. After washing the cells once with PBS, they were fixed in 3.7% formaldehyde in PBS (20 min, rt), and permeabilized and blocked in 1% BSA and 0.1% triton X-100 in PBS (30 min, rt). Then, the cells were incubated with monoclonal mouse anti-alpha-tubulin antibody (1 h, 37 °C). […] Then, the cells were washed for three times with PBS and once with water. The glass coverslips were mounted in 4-88 based mounting medium supplemented with 1 µg/mL DAPI for counterstaining the nuclei and 2.5% DABCO. Alterations of the microtubule were documented by a Zeiss Imager A1 AX10 fluorescence microscope (400× magnification).

Test [3] has as its system MCF-7^Topo breast adenocarcinoma cells. The experiment in a line: MTT assay, MCF-7^Topo breast carcinoma cells. The conditions noted are these: Homo sapiens, MCF7/Topo, read-out: IC50 MCF-7^Topo (72 h). It counts as cell-based. The procedure: as §1, §2
The next test has as its system 518A2 melanoma cells. Briefly: DCFH-DA assay of intracellular ROS. It counts as cell-based, human. Particulars: 10 µM, 1 h, vehicle treated controls set to 100%. The source says: Gosch 2,3, Alexandra […] Rothemund 1, Thomas Mueller 4, […] Schobert 1, Bernhard Biersack 1,*, Andrea Volkamer 3 and Michael […] 2,* 1 Department of Chemistry, University of […], Germany; florian1.schmitt@uni-[…].rothemund@uni -[…].schobert@uni - bayreuth.de (R.S.) 2 Institute of Physiology, Charité-Universitätsmedizin Berlin, Charitéplatz 1, 10117 Berlin, Germany; […].), alexandra.[…].) 3 In Silico Toxicology Group, Institute of Physiology, Charité-Universitätsmedizin Berlin, Charitéplatz 1, 10117 Berlin, Germany; […] 4 Internal Medicine IV, University Hospital […], Germany; thomas.mueller@medizin.uni-[…] * Correspondence: bernhard.biersack@yahoo.com (B.B.); michael.hoepfner@charite.de (M.H.); Tel.: +49-921- 55- 2673 (B.B.); Tel: +49-030-450-528 -515(M.H.); Table of content Material and Methods ... S1 DCFH-DA assay. ... S1 Immuofluorescence staining of acetylated alpha-tubulin ... S2 Wound healing assay ... S2 Results ... S3 Effect on the microtubule cytoskeleton ... S3 Effect on the intracellular ROS levels ... S3 Effect on the acetylation of alpha-tubulin ... S3 Effect on migratory activity ... S5 Effect on mouse weight ... S6 Graphs of MTT assays ... S7 S1 Material and Methods DCFH-DA assay. The assay was performed as previously described. […] 100 μL/well) were grown in a black 96-well plate for 24 h. Then, the cell medium was exchanged for […] After […] and vehicle (DMSO) in serum-free DMEM for 1 h at 37 °C. Then, the cells were washed twice with 100 μL PBS and subsequently placed in a microplate reader (TECAN). The DCF-fluorescence (λex = 485 nm, λem = 535 nm) as a measure of ROS production was determined and that of vehicle treated controls set to 100%. Values exceeding 100% indicate a drug-induced ROS generation. The values of six independent assays were depicted as the means ± SD. There were no outliers and the data fulfilled variance homogeneity (Levene's test, p > 0.05).

Setting [4] is: HT-29, read-out: IC50 HT-29 (72 h), 72 h.
Setting [5] is: HT-29, 24 h, read-out: IC50 HT-29 (24 h).

T1 sequence (Q13547 whole entry): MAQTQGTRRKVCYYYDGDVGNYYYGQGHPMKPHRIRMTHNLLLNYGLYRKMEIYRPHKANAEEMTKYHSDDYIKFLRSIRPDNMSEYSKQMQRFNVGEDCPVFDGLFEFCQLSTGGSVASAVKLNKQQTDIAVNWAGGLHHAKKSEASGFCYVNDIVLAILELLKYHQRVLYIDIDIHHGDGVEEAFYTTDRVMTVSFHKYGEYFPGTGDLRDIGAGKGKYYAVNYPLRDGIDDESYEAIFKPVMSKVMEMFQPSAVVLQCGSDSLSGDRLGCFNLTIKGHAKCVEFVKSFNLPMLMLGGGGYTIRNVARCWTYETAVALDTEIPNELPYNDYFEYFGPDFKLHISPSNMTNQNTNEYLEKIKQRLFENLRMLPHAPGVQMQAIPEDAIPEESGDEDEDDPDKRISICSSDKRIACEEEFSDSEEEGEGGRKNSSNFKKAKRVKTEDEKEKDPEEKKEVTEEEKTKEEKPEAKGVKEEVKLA

As for `COc1ccc(-c2ocnc2-c2cc(Br)c(OC)c(OC)c2)cc1OCCCC(=O)NO` [4d, N-Hydroxy-4-[1-methoxy-4-(4’-(3’’-bromo-4’’,5’’-dimethoxyphenyl)oxazol-5’-yl)-2-phenoxy]butanamide], the 50% inhibitory concentration (IC50) in test [1] (setting [4]) was 1.4 ± 0.2 µM; in test [1] (setting [5]), 1.3 ± 0.3 µM; at recombinant human HDAC1 it was 4 ± 0.1 µM; in test [3], 2.8 ± 0.3 µM. The “effect on microtubule cytoskeleton” value in test [2] (0.5 µM) is on record as “complete disruption of the microtubule cytoskeleton”. The “intracellular ROS level” value in the test on 518A2 melanoma cells is reported as 241% ± 17.

For `COc1ccc(-c2ocnc2-c2cc(Br)c(OC)c(OC)c2)cc1OCCCCCC(=O)NO` [4f, N-Hydroxy-6-[1-methoxy-4-(4’-(3’’-bromo-4’’,5’’-dimethoxyphenyl)oxazol-5’-yl)-2-phenoxy]hexanamide], the half-maximal inhibitory concentration (IC50) in test [1] (setting [4]) is 14.2 ± 1.6 µM; in test [1] (setting [5]) it was 6.6 ± 0.6 µM; on recombinant human HDAC1 it was 0.49 ± 0.05 µM; in test [3], 8.3 ± 0.7 µM. Moreover, in test [2] (4 µM), the “effect on microtubule cytoskeleton” value is recorded as “did not affect the microtubule cytoskeleton”. Besides, in the test on 518A2 melanoma cells, the “intracellular ROS level” value is reported as 198 ± 24%.

For `COc1ccc(-c2ocnc2-c2cc(Br)c(OC)c(OC)c2)cc1OCCCCC(=O)NO` [4e, N-Hydroxy-5-[1-methoxy-4-(4’-(3’’-bromo-4’’,5’’-dimethoxyphenyl)oxazol-5’-yl)-2-phenoxy]pentanamide], the half-maximal inhibitory concentration (IC50) worked out at 1.9 ± 0.2 µM in test [1] (setting [4]), 2.1 ± 0.6 µM in test [1] (setting [5]), 3.8 ± 0.1 µM on recombinant human HDAC1 and 3.4 ± 0.2 µM in test [3]. The “effect on microtubule cytoskeleton” value in test [2] ([…]) was “eroded the highly organized microtubule network, but left some intact clusters”. The “intracellular ROS level” value in the test on 518A2 melanoma cells is 230 ± 31%.

By IC50 is commonly meant the concentration that inhibits the measured activity by half.
